According to patent US20140341846A1, “METHODS OF INHIBITING PHOTORECEPTOR APOPTOSIS” (The Regents of The University of Michigan, priority 2009, published 2014):
“Also recorded” adds a separate entry of the source.

Assays:
[1] = test system: Fas-mediated caspase 8 activation in 661W cells; assay: Fas-Ab induced caspase 8 activity in 661W cells; type: cell-based; conditions: 500 ng/ml Fas-Ab, 48 hours after treatment
Description: The 661W cell line was maintained in Dulbecco's modified Eagle's medium containing 10% fetal bovine serum, 300 mg/L glutamine, 32 mg/L putrescine, 40 μL/L of β-mercaptoethanol, and 40 μg/L of both hydrocortisone 21-hemisuccinate and progesterone. The media also contained penicillin (90 units/ml) and streptomycin (0.09 mg/ml). Cells were grown at 37° C. in a humidified atmosphere of 5% CO2 and 95% air.
In cell culture experiments, caspase 8 activity was measured by a commercially available luminescent tetrapeptide (LETD) cleavage assay kit (Promega, Madison, Wis.). The 661W cells were seeded in 96-well plates (Nunc, Rochester, N.Y.) at 1500 cells/well for 24 hours prior to treatment. Cells were pre-treated with various concentrations of Met12, mMet, or vehicle for 1 hour prior to treatment with 500 ng/ml of Fas-agonistic Jo2 monoclonal antibody (BD Biosciences, San Jose, Calif.). Caspase 8 activity was measured at various time points by incubating the cells with the pro-luminescent substrate in 96-well plates following manufacturer's instructions. Controls included untreated cells and wells with no cells. Luminescence was measured in a plate reader luminometer (Turner Biosystems, Sunnyvale Calif.).

caspase 9 = assay: Caspase 9 activity in detached retinas (Met study); type: in vivo, Brown Norway rats; conditions: 50 μg subretinal
Description: (§1) Retinal-RPE separation was created in Brown Norway rats by subretinal injection of 1% hyaluronic acid. Met12, derived from the Fas-binding extracellular domain of the oncoprotein Met, was injected into the subretinal space at the time of separation. […] Extrinsic apoptotic pathway was induced in 661W cells using a Fas-activating antibody in the presence or absence of Met12. Caspase 3, caspase 8, and caspase 9 activities were measured with calorimetric and luminescent assays in retinal extracts and cell lysates. Terminal deoxynucleotidyl transferase dUTP nick-end labeling (TUNEL) was performed in retinal sections 3 days after separation. Histology was performed in retinal sections 2 months after retinal detachment.
(§2) Rodents were anesthetized with a 50:50 mix of ketamine (100 mg/mL) and xylazine (20 mg/mL), and pupils were dilated with topical phenylephrine (2.5%) and tropicamide (1%). A 20-gauge microvitreoretinal blade (Walcott Scientific, Marmora, N.J.) was used to create a sclerotomy 2 mm posterior to the limbus, carefully avoiding lens damage. […]
(§3) Caspase 3, caspase 8 and caspase 9 activities were measured with colorimetric tetrapeptide cleavage assay kits, per the manufacturer's instructions (Bio-Vision, Mountain View, Calif.). […] Absorbance was measured at 405 nm in a microplate reader (Spectra-MAX 190, Molecular Devices, Sunnyvale, Calif.). […]

caspase 3 = assay: Caspase 3 activity in detached retinas (Met study); type: in vivo, Brown Norway rats; conditions: 50 μg subretinal
Description: as §1, §2, §3

caspase 8 = assay: Caspase 8 activity in detached retinas (Met study); type: in vivo, Brown Norway rats; conditions: 50 μg subretinal at time of detachment; 24 hours after detachment
Description: as §1, §2, §3

[2] = test system: photoreceptors (outer nuclear layer); assay: TUNEL staining 3 days after retinal detachment (Met study); type: in vivo, Brown Norway rats; conditions: 50 μg subretinal
Description: as §1
(§4) Rodents were anesthetized with a 50:50 mix of ketamine (100 mg/mL) and xylazine (20 mg/mL), and pupils were dilated with topical phenylephrine (2.5%) and tropicamide (1%). […]
(§5) Photoreceptor cell apoptosis was quantified as the percentage of total cells in the outer nuclear layer (ONL) that were TUNEL positive. […] The total number of cells in the ONL was measured in a similar fashion. The total thickness of the retina (measured from the outer edge of the ONL to the inner limiting membrane) was measured in three places in each of three non-overlapping high power fields (40×) at the maximal height of the retinal detachment per section and averaged for each eye. […]

[3] = test system: photoreceptors (outer nuclear layer); assay: ONL cell counts and thickness 2 months after retinal detachment (Met study); type: in vivo, Brown Norway rats; conditions: 50 μg subretinal at time of detachment; after 2 months of retinal detachment
Description: as §1, §4, §5

Jurkat cells = Jurkat cells (Zou et al. Nat Med. 2007); cited from earlier work

## HHGSDHERNYIY [mMet, reference compound]
[1]
  effect on Fas-Ab induced caspase 8 activation: no effect
Caspase 9; 24 hours after detachment
  effect on caspase 9 activity level in detached retinas: did not affect
Caspase 3; 24 hours after detachment
  effect on caspase 3 activity level in detached retinas: did not affect
Caspase 8
  caspase 8 activity in detached retinas compared to attached retinas: significantly increased

## HHIYLGAVNYIY [Met12]
[2]
  fewer TUNEL-positive photoreceptors as compared with mMet-injected separated retinas: ~77%
[1]
  effect on Fas-Ab induced caspase 8 activation: inhibited by Met12 treatment in a dose dependent manner; also recorded: full inhibition
Caspase 9; after 24 hours
  reduction of caspase 9 activity in detached retinas: approximately 50%
Caspase 3; after 24 hours
  reduction of caspase 3 activity in detached retinas: approximately 50%
[3]
  increase in ONL cell counts compared with mMet-injected retinas: 37%
  increase in ONL thickness measurements compared with mMet-injected retinas: 27%
Jurkat cells
  protection from FasL induced apoptosis: protects
Caspase 8
  reduction of caspase 8 activity in detached retinas: approximately 50%
